For data set [1] the following is noted: no reference given, cited from earlier work; for pKa of the carboxyl groups: general value.
Data set [2] relates to DH5α E. coli. Briefly: MIC against DH5α E. coli. It counts as cell-based. To be noted: Escherichia coli, read-out: Minimum inhibitory concentration against DH5α E. coli.
Another data set deals with K12 E. coli. Briefly: MIC against K12 E. coli. It counts as cell-based.
The test system of data set [3] is DH5α E. coli. On the set-up: method as in PMID 15858645. To be noted: free bases, previously reported data; cited from earlier work.
Data set [4] has as its system S. aureus 1199B. Briefly: MIC against S. aureus 1199B. It counts as cell-based, Staphylococcus aureus. To be noted: for MIC: Staphylococcus aureus, 1199B, read-out: MIC S. aureus 1199B, MHII media, 90% growth inhibition.
Data set [5] in a line: Turbidimetric solubility limit in MHII or PBS. It counts as physicochemical. The conditions noted are these: DMSO ≤0.5%.
For the next data set, the system named is Tet^R E. coli. Nature of the data set: MIC against Tet^R E. coli. It counts as cell-based. To be noted: Escherichia coli, read-out: MIC Tet^R E. coli.
Data set [6] concerns S. aureus 1199B. Briefly: Checkerboard combination with norfloxacin. It counts as cell-based, Staphylococcus aureus. The text has this:
Each of the checkerboard analyses shown in Figure 7 combines one of 1–6 with norfloxacin. S. aureus 1199B is resistant to norfloxacin. By combining varying concentrations of both norfloxacin and a lariat ether or lariat ether derivative, potency enhancement, if any, can be determined. In the graphs (checkerboards) shown, the potency of each concentration combination can be assessed visually.
In both cases, the concentrations varied by a factor of two. Four controls were employed on each checkerboard plate: full growth (only cells), no growth (only media), and then a column for each drug alone to accurately reflect their individual MIC values. The concentrations of amphiphile and antibiotic tested were ½, ¼, ^1/8, ^1/16, and ^1/32 of the MIC. Preparation of the stock solutions and plates was by the same method described in the minimum inhibitory concentration section.

Data set [7] has as its system human embryonic kidney (HEK-293) cells. Nature of the data set: Cytotoxicity against HEK-293 cells. It counts as cell-based. To be noted: three independent trials. The text has this:
(§1) The potential toxicity of 1–6 is a critical factor in their application either as an antimicrobial or an adjuvant. In vitro toxicity studies were therefore conducted using human embryonic kidney (HEK-293) and simian kidney (COS-7) cells. The graphs shown in Figure 20 show the percentage survival of each cell type as a function of lariat ether concentration on the logarithmic x-axis. In each graph, the IC50 value is specified for each compound and cell type. The value of IC50 is the concentration of lariat ether that inhibits the growth of 50% of the cells studied.
(§2) The cytotoxicity experiments were conducted as described in [44].

The next data set deals with S. aureus. Briefly: MIC against S. aureus under various pH and media conditions. It counts as cell-based, Staphylococcus aureus. The conditions noted are these: for Change in MIC as the pH was increased from 6.4 to 8.4: S. aureus, Mueller Hinton medium.
The next data set concerns S. aureus (1199B). Briefly: Membrane permeability (propidium iodide / alamar blue). It counts as cell-based, Staphylococcus aureus. The conditions noted are these: compound at ½ MIC. Here is the method: Membrane permeability was assessed by using the dyes propidium iodide and alamar blue. […] However, when PI does enter a cell, it intercalates within the DNA structure. […] When intercalation occurs, a strong fluorescent emission can be detected. Alamar blue, based on resazurin, is a nontoxic weakly fluorescent dye that is sensitive to reduction potential within vital cells. When reduced, it is converted into highly fluorescent resorufin (7-hydroxy-3H-phenoxazin-3-one).
The combination of alamar blue and propidium iodide allowed us to assess the membrane permeability of S. aureus while confirming cellular vitality. Results of the PI/alamar blue studies with S. aureus are summarized in the graph of Figure 5. When S. aureus (1199B) was exposed to the two dyes, penetration of PI was relatively low and cellular vitality remained high. […] In general, cellular penetration and vitality correlated.
Membrane permeability studies were conducted as detailed in [48].

Data set [8] concerns simian kidney (COS-7) cells. Nature of the data set: Cytotoxicity against COS-7 cells. It counts as cell-based. The conditions noted are these: Chlorocebus aethiops, COS-7, percentage survival, three independent trials.
Source text: as §1, §2

A short description of data set [9]: Dynamic light scattering of C12LE aggregation. It counts as physicochemical. To be noted: for Slope of C12LE aggregation (DLS particle size): water, in the presence of the antimicrobial or C12LE alone. Here is the method:
It is known that dialkyldiazacrowns form stable aggregates in aqueous solution [57, 62]. It was hypothesized that complexation between antimicrobials and macrocycles would alter or prevent the ability of the complex to form aggregates. […] Indeed, the particle sizes observed when chlortetracycline is present was almost indistinguishable from particle formation by C12LE (4) alone.
Measurements were performed on a Brookhaven Instruments Corp. ZetaPALS instrument at 25 °C using a 660 nm laser and correlating scattering at 90°. Samples were prepared by initially dissolving the amphiphile in filtered DMSO obtained from ThermoFisher. Next, they were diluted into 1× PBS such that DMSO was fixed at 0.5% in 15 mL sterile conical tubes. 10× PBS was obtained commercially, then diluted 10-fold in MQ H2O. The mixture was vortexed and incubated at room temperature for 2 h, then transferred to a clean quartz cuvette and equilibrated in the instrument for 10 min at 25 °C. Ten measurements consisting of 2 min runs were made on each sample. The average effective diameter was calculated with standard error reported for at least three trials.

Setting [10] is: no additional antimicrobial, MICs in table limited to […].
Where [11] appears, read: Escherichia coli, MHII media, 90% growth inhibition, read-out: MIC K12 E. coli.
Setting [12] is: Homo sapiens, HEK293, percentage survival.

Values after ≈ are worked out from the molar mass of the structure shown. Read-outs that look alike come from different tables or passages of the source. Where only a bound is given, the exact number is not on record here.

As to `CC1(C)S[C@@H]2[C@H](NC(=O)Cc3ccccc3)C(=O)N2[C@H]1C(=O)O` [Penicillin G, penicillin G], in [1], the “pKa of the carboxyl groups” value is 2.6–2.8.
In the case of `CC1(C)S[C@@H]2[C@H](NC(=O)[C@H](N)c3ccccc3)C(=O)N2[C@H]1C(=O)O` [Ampicillin, ampicillin], the “pKa of the carboxyl groups” value in [1] is reported as 2.6–2.8.
For `CCCCCCCCCCCCCC[N+]1(C)CCOCCOCC[N+](C)(CCCCCCCCCCCCCC)CCOCCOCC1` (stereo not drawn) [n-tetradecyl LE•MeI], the MIC in the data set on DH5α E. coli [2] (setting [10]) was above 128 µM.
For `CCCCCCCCCCCCCCN1CCOCCOCCN(CCCCCCCCCCCCCC)CCOCCOCC1` [n-tetradecyl LE], the MIC in the data set with K12 E. coli (Escherichia coli, read-out: MIC K12 E. coli, MHII media, 90% growth inhibition) is at least 128 µM. Also, in the data set with DH5α E. coli [3], the “Minimum inhibitory concentration against DH5α E. coli” value is listed as above 128 µM.
On to `CCCCN1CCOCCOCCN(CCCC)CCOCCOCC1` [di-n-butyl-diaza-18-crown-6], for which, in [1], the “pK1 of macro ring nitrogen atoms” value was 9.40 and the “pK2 of macro ring nitrogen atoms” value is listed as 7.97.
With `CCCCCCCC[N+]1(C)CCOCCOCC[N+](C)(CCCCCCCC)CCOCCOCC1` (stereo not drawn) [n-octyl LE•MeI], in the data set on DH5α E. coli [2] (setting [10]), the MIC is above 128 µM.
For the compound `CCn1cc(C(=O)O)c(=O)c2cc(F)c(N3CCNCC3)cc21` [Norfloxacin, reference compound], the MIC turned out to be 64 µM (≈ 20.4 µg/mL) in the data set with S. aureus 1199B [4] and 0.125 µM (≈ 0.0399 µg/mL) with K12 E. coli (setting [11]).
The term solubility denotes the dissolved amount per volume that the medium holds. The IC50 is the concentration needed to halve the response being measured. Take `CCCCCCCCCCN1CCOCCOCCN(CCCCCCCCCC)CCOCCOCC1` [C10LE (1), N,N′-Di-n-decyl-4-13-diaza-18-crown-6]: the solubility at 2 h in data set [5] (Mueller Hinton II, pH 7.3, 2 h at 37 °C, read-out: Solubility limit in MHII) was at least 128 µM; in data set [5] (phosphate-buffered saline, 2 h at 37 °C, read-out: Solubility limit in PBS) it was at least 128 µM. In the data set on S. aureus 1199B [4] (MHII media, 90% growth inhibition), the “MIC S. aureus 1199B” value was 8 µM (≈ 4.34 µg/mL). For the same compound, the MIC in the data set with Tet^R E. coli was 8 µM (≈ 4.34 µg/mL); with K12 E. coli (MHII media, 90% growth inhibition, read-out: MIC K12 E. coli) it was 10 µM (≈ 5.43 µg/mL); in the data set on S. aureus (MH medium, read-out: MIC S. aureus, MH), 16 µM (≈ 8.69 µg/mL); with S. aureus (MHII, pH 6.4, read-out: MIC S. aureus, MHII pH 6.4), 16 µM (≈ 8.69 µg/mL); in the data set on S. aureus (MHII, pH 7.4, read-out: MIC S. aureus, MHII pH 7.4), at least 16 µM; with S. aureus (MHII, pH 8.4, read-out: MIC S. aureus, MHII pH 8.4) it was 32 µM (≈ 17.4 µg/mL). Also, the MIC in the data set with S. aureus (Staphylococcus aureus, MH + Ca2+, read-out: MIC S. aureus, MH + Ca^2+) is 16 µM; in the data set with DH5α E. coli [2] it was 11 µM (≈ 5.97 µg/mL). The “Norfloxacin concentration required to effect 90% growth inhibition” value with S. aureus 1199B [6] (lariat ether co-administered at 2 µM) is 0.5 µM. Further, the “Fold increase in the potency of norfloxacin” value in the data set with S. aureus 1199B [6] (norfloxacin-resistant S. aureus 1199B, checkerboard) was 128 fold. The IC50 in data set [7] (setting [12]) was 13 µM; in [7] (percentage survival), at most 10 µM. In addition, the “Change in MIC as the pH was increased from 6.4 to 8.4” value in the data set on S. aureus is reported as “changes in MIC were observed”.
For `CCCCCCCCCCCC[N+]1(C)CCOCCOCC[N+](C)(CCCCCCCCCCCC)CCOCCOCC1` (stereo not drawn) [C12LE•2MeI (6), N,N′-Di-n-dodecyl-4-13-diaza-18-crown-6 bis(methiodide)], the solubility at 2 h in data set [5] (Mueller Hinton II broth, 37 °C, pH 7.3, plasma or biological fluid, kinetic from dmso stock, Mueller Hinton II, pH 7.3, 2 h at 37 °C, read-out: Solubility limit in MHII) was 1 to 2 µM; in data set [5] (phosphate-buffered saline, 37 °C, aqueous buffer, kinetic from dmso stock, phosphate-buffered saline, 2 h at 37 °C, read-out: Solubility limit in PBS), at least 128 µM. The MIC in the data set with S. aureus 1199B [4] was found to be 1 µM; in the data set on Tet^R E. coli, 16 µM; with K12 E. coli (setting [11]), 4 µM; in the data set with S. aureus (Staphylococcus aureus, pH 6.4, MHII, pH 6.4, read-out: MIC S. aureus, MHII pH 6.4), 2 µM; with S. aureus (Staphylococcus aureus, pH 7.4, MHII, pH 7.4, read-out: MIC S. aureus, MHII pH 7.4), 2 µM; in the data set on S. aureus (Staphylococcus aureus, pH 8.4, MHII, pH 8.4, read-out: MIC S. aureus, MHII pH 8.4), 2 µM. In addition, in the data set with DH5α E. coli [2] (setting [10]), the MIC is 2 µM. Also, in the data set on S. aureus (1199B), the “PI penetration (membrane permeability)” value was “level of PI penetration similar to that observed for S. aureus alone”. Further, the IC50 was 25 µM in data set [8], 11 µM in [7] (setting [12]) and at most 10 µM in data set [7] (percentage survival). Besides, the “Change in MIC as the pH was increased from 6.4 to 8.4” value in the data set on S. aureus is “unchanged”.
Consider `NC[C@H]1O[C@H](O[C@H]2[C@H](O)[C@@H](O[C@H]3O[C@H](CO)[C@@H](O)[C@H](N)[C@H]3O)[C@H](N)C[C@@H]2N)[C@H](O)[C@@H](O)[C@@H]1O` [Kanamycin, kanamycin], for which the “Slope of C12LE aggregation (DLS particle size)” value (from here on “Slope of C12LE aggregation”) in [9] was determined as 2.5.
Take `CCCCCCCCCCCN1CCOCCOCCN(CCCCCCCCCCC)CCOCCOCC1` [n-undecyl LE, N,N′-Di-n-undecyl-4,13-diaza-18-crown-6]: in the data set with DH5α E. coli [3], the “Minimum inhibitory concentration against DH5α E. coli” value was 20 µM (≈ 11.4 µg/mL).
Regarding `O=C(O)c1cn(C2CC2)c2cc(N3CCNCC3)c(F)cc2c1=O` [Ciprofloxacin, ciprofloxacin], the “Slope relative to the particle size profile of C12LE alone” value in data set [9] (DLS) is recorded as “about 60%”. For the same compound, the “Slope of C12LE aggregation” value in [9] was 1.8.
In the case of `CO/N=C(\C(=O)N[C@@H]1C(=O)N2C(C(=O)[O-])=C(C[N+]3(C)CCCC3)CS[C@H]12)c1csc(N)n1` [Cefepime, cefepime], the “Slope of C12LE aggregation” value in data set [9] is 3.2.
